The values below are quoted from earlier work in patent US11607386B2, “Liposomes encapsulating adenosine” (New York University, priority 2019, dated 2023).

Experiment in data set [1]: not given
This is another data set of the same source.

Turning to `Nc1ncnc2c1ncn2[C@@H]1O[C@H](CO)[C@@H](O)[C@H]1O` [adenosine], the half-life result is recorded as “mere seconds”. Further, the “solubility of adenosine in water” value in data set [1] is 7000 µg/mL.
